Laboratory results from article PMC12198407, “Preclinical and first-in-human of purinostat mesylate, a novel selective HDAC I/IIb inhibitor, in relapsed/refractory multiple myeloma and lymphoma” (Signal Transduction and Targeted Therapy, 2025).
Where two headings read alike, the source gives them in different places.

Key:
HDAC11 = HDAC11 (Homo sapiens, UniProt Q96DB2); experiment: HDAC enzyme activity in vitro; type: biochemical
5TGM1-luc myeloma = experiment: 5TMM mouse model, survival and serum calcium; type: in vivo, C57BL/KawRij mice; set-up: serum calcium level: unit not given here; conditions: 10 mg/kg
Procedure: The cMYC-KRAS12V-induced plasmacytoma mouse model in BALB/c (GemPharmatech Co., Ltd., Nanjing, China) was established as previously described.[33] On day 28 or 35 post bone marrow transplantation, recipients received various treatments. The 5TMM mouse model was established as previously described.[55] The 5TGM1-luc cells were intravenously injected into 6-week-old C57BL/KawRij mice (Harlan Co. Netherlands) with 2 × 10^6 cells per mouse. After three weeks, mice were treated with vehicle or PM 10 mg/kg. Serum Ca^2+ levels were monitored weekly for three weeks after the start of administration. Kaplan-Meier survival curves were generated for each treatment group. Additionally, the 5TMM mouse model studying PM’s effects on immune response and bone destruction involved randomizing mice into vehicle and PM (10 mg/kg) groups one week after inoculation. T cell subsets were analyzed by flow cytometry 24 h after a single dose and 1 month after vehicle or PM treatment. The mice were sacrificed after 1 month of treatment, and the bone destruction was detected by Micro-CT.

[1] = tested on: mouse BM-derived osteoclasts (M-CSF, RANKL); experiment: Osteoclast formation, TRAP staining; type: cell-based, C57BL/6 mice; conditions: M-CSF and RANKL induced
Procedure: Primary mouse BM cells were collected from 6-to-8 weeks C57BL/6 mice, and 1.0 × 10^5 cells were seeded into 48-well plates with α-MEM containing 10% FBS and 40 ng/mL M-CSF (PeproTech, catalog # 315-02) for 3 days to recruit macrophage and then induce osteoclast differentiation plus 50 ng/mL RANKL (R&D, catalog # 462-TEC-010/CF) with or without indicated concentration of PM for 4 days. Half-media changes were carried out every 2 days. The TRAP staining kit was purchased from Sigma-Aldrich (CS0704), and TRAP staining was performed according to the kit instructions.

[2] = tested on: class I HDAC substrates histone H3 and H4 in SUDHL-6, Daudi, Raji, Ramos, RPMI-8226; experiment: Cellular acetylation of histone H3 and H4; type: cell-based, human
From the text: The results of these cell experiments were consistent with the in vitro enzyme activity assay results.

[3] = tested on: human Burkitt lymphoma Raji; experiment: Raji subcutaneous tumor model; type: in vivo, NOD/SCID mice
From the text: In contrast, both batches of the positive control CODOX group experienced instances of individual mortality during administration.

[4] = tested on: human multiple myeloma RPMI-8226; type: in vivo
[5] = Safety pharmacology, CNS and respiratory; type: in vivo, rats; conditions: 30 and 90 mg/kg i.v.
Procedure: In the 1.2 and 3.6 mg/kg groups, transient increases in heart rate were observed, and in the 3.6 mg/kg group, a transient and reversible prolongation of QT interval (9.6%) was also noted. Additionally, there were no significant effects observed on other qualitative and quantitative ECG parameters or blood pressure in the dogs. […] In the 90 mg/kg group, reduced locomotor activity and decreased standing frequency were also observed, but these effects returned to baseline after 24 hours. No significant effects were noted on other neurological behaviors in rats, and no impacts on the respiratory system were observed.

[6] = Intravenous vascular irritation test; type: in vivo, rabbits; conditions: 0.204 mg/mL, 10 mL/kg, 5 days
Procedure: This experiment included a blank formulation group of injectable Purinostat Mesylate and an injectable Purinostat Mesylate group, with 8 Japanese White Rabbits in each group, evenly divided by sex. The injectable Purinostat Mesylate group received an intravenous infusion of 0.204 mg/mL (the maximum intended clinical concentration) at a volume of 10 mL/kg via the right ear marginal vein. The blank formulation group received an intravenous infusion of hydroxypropyl beta-cyclodextrin at the same dose as the injectable Purinostat Mesylate group. Each rabbit in both groups also received an equal volume of 0.9% sodium chloride injection via the left ear marginal vein as a self-control. The administration was performed once daily for a total of 5 consecutive days, with the first day of administration defined as Day 1 of the experiment. During the study, the general condition of the rabbits and the injection site were monitored daily. Approximately 72 hours and 16 days after administration, 4 rabbits from each group were euthanized for gross anatomical observation of the injection site, and blood vessels and surrounding tissues from the injection site were collected for histopathological examination.

[7] = Pharmacokinetics, intravenous; type: in vivo, Beagle dogs; conditions: both sexes, Beagle, dog, plasma; for Vd: read-out: Vdss; for clearance: read-out: plasma clearance (CL)
Procedure: The elimination half-lives (T1/2) were 4.49 ± 0.669, 7.05 ± 3.07, and 8.47 ± 1.26 hours, respectively. The area under the plasma concentration-time curve from time zero to the last quantifiable time point (AUC0-last) was 75.1 ± 18.3, 238 ± 63.1, and 713 ± 122 h•ng/mL, respectively.

CYP2C19 = biological target: T1, CYP2C19 (Homo sapiens, UniProt P33261); experiment: CYP inhibition, human liver microsomes; type: in vitro ADME
T1 construct: human liver microsomal cytochrome P450 isoenzymes; from tissue; host or cells: human liver microsomes

[8] = human, in vivo

Chain of HDAC11 (Q96DB2 whole entry): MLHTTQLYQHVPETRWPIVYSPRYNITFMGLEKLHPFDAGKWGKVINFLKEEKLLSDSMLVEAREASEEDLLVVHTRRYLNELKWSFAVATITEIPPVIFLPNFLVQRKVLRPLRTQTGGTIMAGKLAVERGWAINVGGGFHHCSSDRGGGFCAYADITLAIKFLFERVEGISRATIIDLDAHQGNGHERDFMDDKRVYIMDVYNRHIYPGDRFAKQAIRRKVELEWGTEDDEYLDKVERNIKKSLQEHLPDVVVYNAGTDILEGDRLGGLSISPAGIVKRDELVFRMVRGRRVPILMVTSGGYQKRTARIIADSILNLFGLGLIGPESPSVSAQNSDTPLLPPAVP
T1 sequence (P33261 whole entry): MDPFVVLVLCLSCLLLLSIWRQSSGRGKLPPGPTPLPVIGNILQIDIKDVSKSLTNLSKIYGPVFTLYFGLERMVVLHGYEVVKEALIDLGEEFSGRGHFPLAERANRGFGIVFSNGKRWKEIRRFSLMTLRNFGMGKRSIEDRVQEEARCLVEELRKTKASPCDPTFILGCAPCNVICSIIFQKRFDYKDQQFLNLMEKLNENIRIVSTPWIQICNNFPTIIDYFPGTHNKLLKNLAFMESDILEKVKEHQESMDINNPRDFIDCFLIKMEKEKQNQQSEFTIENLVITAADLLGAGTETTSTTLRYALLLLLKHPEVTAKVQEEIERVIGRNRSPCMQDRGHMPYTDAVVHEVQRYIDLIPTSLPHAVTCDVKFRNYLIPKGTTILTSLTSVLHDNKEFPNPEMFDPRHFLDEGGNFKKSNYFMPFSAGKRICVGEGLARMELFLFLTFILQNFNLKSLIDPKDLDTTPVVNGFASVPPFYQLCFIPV
Procedure for T315I Bcr-Abl B-ALL: Subcutaneous or orthotopic tumor models were established using NOD/SCID mice for human-derived lymphoma, multiple myeloma cell lines, and samples from clinical B-ALL patients. The Ighmyc transgenic mice and primary B-ALL models were induced using C57 mouse strains. The experimental doses of Purinostat Mesylate include 1.25, 2.5, 5, 10, and 20 mg/kg, administered via tail vein (i.v.) three times a week. In each model experiment, the positive control drugs included the HyperCVAD regimen (cyclophosphamide, doxorubicin, vincristine, dexamethasone, methotrexate, and cytarabine) simulating clinical treatment for double-hit lymphoma, the CODOX regimen (cyclophosphamide, doxorubicin, vincristine, methotrexate, and cytarabine) simulating clinical treatment for Burkitt lymphoma, as well as lenalidomide (L), bortezomib (B), dexamethasone (D), and LBH589 lactate, which is marketed for relapsed or refractory multiple myeloma. In the subcutaneous tumor model experiments using human-derived tumor cell lines, the inhibitory effect of Purinostat Mesylate on tumors was assessed by measuring tumor volume (TV), tumor weight, relative tumor volume (RTV), and relative tumor growth rate (T/C). Additionally, in some model experiments, satellite groups were designed, where animals in these groups were not sacrificed at the same treatment endpoint and received extended treatment. […]

## CN(Cc1nc2c(N3CCOCC3)nc(-c3ccc(N)cc3)nc2n1C)c1ncc(C(=O)NO)cn1.CS(=O)(=O)O [PM, 2-(((2-(4-Aminophenyl)-9-methyl-6-(4-morpholinyl)-9H-purine-8-yl)methyl)methylamino)-N-hydroxy-5-pyrimidine-carboxamide Mesylate]
HDAC11
  IC50: 3.35 µM
5TGM1-luc myeloma; two weeks, vehicle 20.93
  serum calcium level: 8.972
5TGM1-luc myeloma; vehicle 50 days
  survival: 86 days
[1]
  mature osteoclast formation (TRAP staining): obviously suppressed mature osteoclast cells formation
[2]
  concentration inducing increased acetylation of histone H3 and H4: 0.3 to 1 nM
[3]; 1.25 mg/kg
  T/C: 48.13±5.13%
[3]; 1.25 mg/kg, mean of two batches
  tumor inhibition rate: 52.03 ± 3.36%
[3]; 2.5 mg/kg
  T/C: 31.86±8.56%
  tumor inhibition rate: 66.15 ± 12.49%
[3]; 5 mg/kg
  T/C: 18.11±7.50%
  tumor inhibition rate: 81.65 ± 8.67%
[3]; 10 mg/kg
  T/C: 7.75±5.02%
  tumor inhibition rate: 89.98 ± 8.01%
[3]; satellite group, 10 mg/kg
  median survival time: 39 days
[4]; 1.25 mg/kg
  T/C: 13.9%
  tumor inhibition rate: 81.61%
[4]; 2.5 mg/kg
  T/C: 6.6%
  tumor inhibition rate: 92.33%
[4]; 5 mg/kg
  T/C: 2.7%
  tumor inhibition rate: 97.77%
[4]; 10 mg/kg
  T/C: 2.2%
  tumor inhibition rate: 97.77%
[4]; satellite groups, PM 5 mg/kg alone or combined, control regimens
  median survival time: 67.5 days
[5]
  body temperature: a decrease in body temperature
[6]
  irritation at the injection site: did not cause irritation at the injection site
[7]; 0.3 mg/kg
  AUC(0-t): 75.1 ± 18.3 ng·h/mL
  Vd: 3.69 ± 0.957 L/kg
  clearance: 68.4 ± 13.2 mL/min/kg
[7]; 0.3 mg/kg single i.v.
  Cmax: 130 ± 35.5 ng/mL
[7]; 0.3 mg/kg, read-out: T1/2 (converted)
  half-life: 4.49 ± 0.669 h
[7]; 1 mg/kg
  AUC(0-t): 238 ± 63.1 ng·h/mL
  Vd: 3.85 ± 1.8 L/kg
  clearance: 73.4 ± 17.9 mL/min/kg
[7]; 1 mg/kg single i.v.
  Cmax: 411 ± 162 ng/mL
[7]; 1 mg/kg, read-out: T1/2 (converted)
  half-life: 7.05 ± 3.07 h
[7]; 3 mg/kg
  AUC(0-t): 713 ± 122 ng·h/mL
  Vd: 2.89 ± 0.605 L/kg
  clearance: 71.5 ± 11.6 mL/min/kg
[7]; 3 mg/kg single i.v.
  Cmax: 1230 ± 166 ng/mL
[7]; 3 mg/kg, read-out: T1/2 (converted)
  half-life: 8.47 ± 1.26 h
[7]; single i.v., range over doses, read-out: half-life
  half-life: 4.49 to 8.47 h
CYP2C19
  IC50: > 10 µM
[8]
  QT interval prolongation on ECG: 10(34.5) n (%)
  cardiac toxic adverse events: no grade 3 or higher events occurring
  transient QTc interval prolongation, grade: ≤ 2 grade
T315I Bcr-Abl B-ALL; 5 mg/kg, solvent control 44 days
  median survival time: greater than 80 days
T315I Bcr-Abl B-ALL; 10 mg/kg
  median survival time: greater than 80 days
